The values that follow come from US20260258035A1, “FIVE-MEMBERED AND SIX-MEMBERED NITROGEN-CONTAINING COMPOUND, AND INTERMEDIATE, PREPARATION METHOD AND USE THEREOF” (HANGZHOU SYNRX THERAPEUTICS BIOMEDICAL TECHNOLOGY CO., LTD., priority 2022, published 2026).

The target of one experiment is PARG (Homo sapiens, UniProt Q86W56). The experiment is described as follows: Biochemical assay (PARG, TFMU-ADPr substrate). The conditions noted are these: PARG, TFMU-ADPr substrate.
The next experiment has as its system HCC1806. As to the kind of experiment: Cell viability assay (CellTiter-Glo). The class given is cell-based, Human. The conditions noted are these: HCC1806, 7 days, CellTiter-Glo, read-out: IC50 (nM) in cell viability assay. On the technique in general: Cellular ATP, detected with luciferase, serves as a proxy for viable cell number.

Read-outs that look alike come from different tables or passages of the source.

PARG, sequence (Q86W56 whole entry): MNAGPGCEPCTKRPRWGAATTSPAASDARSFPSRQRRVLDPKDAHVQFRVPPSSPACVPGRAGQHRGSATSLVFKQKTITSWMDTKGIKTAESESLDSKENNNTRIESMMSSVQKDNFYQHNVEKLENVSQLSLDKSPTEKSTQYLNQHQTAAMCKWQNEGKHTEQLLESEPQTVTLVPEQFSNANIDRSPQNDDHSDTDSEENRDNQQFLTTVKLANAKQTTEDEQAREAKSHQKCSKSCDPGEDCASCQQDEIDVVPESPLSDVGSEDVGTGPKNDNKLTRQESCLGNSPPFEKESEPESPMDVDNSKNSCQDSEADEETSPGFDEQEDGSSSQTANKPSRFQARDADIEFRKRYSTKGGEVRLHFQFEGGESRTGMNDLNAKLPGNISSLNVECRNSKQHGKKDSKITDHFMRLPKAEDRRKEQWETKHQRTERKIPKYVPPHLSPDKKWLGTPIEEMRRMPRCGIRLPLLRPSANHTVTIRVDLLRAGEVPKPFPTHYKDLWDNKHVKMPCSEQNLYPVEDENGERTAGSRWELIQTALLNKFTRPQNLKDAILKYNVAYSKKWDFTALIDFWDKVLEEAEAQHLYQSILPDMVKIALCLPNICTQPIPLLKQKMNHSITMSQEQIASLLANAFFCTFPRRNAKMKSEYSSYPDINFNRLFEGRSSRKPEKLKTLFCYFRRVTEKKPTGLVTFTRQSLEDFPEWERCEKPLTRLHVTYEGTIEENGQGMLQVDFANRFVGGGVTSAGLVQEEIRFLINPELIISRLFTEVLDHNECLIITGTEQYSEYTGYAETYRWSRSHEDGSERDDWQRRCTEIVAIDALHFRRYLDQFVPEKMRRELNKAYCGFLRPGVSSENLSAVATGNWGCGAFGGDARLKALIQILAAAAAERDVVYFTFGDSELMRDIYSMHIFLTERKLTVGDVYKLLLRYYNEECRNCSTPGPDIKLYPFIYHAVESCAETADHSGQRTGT

For `C[C@@H]1CN(c2cc(S(=O)(=O)NC3(C)COC3)cn3c(-c4nnc(C(F)F)s4)ncc23)C[C@@H](C)N1` [Example 180, 3-(5-(difluoromethyl)-1,3,4-thiadiazol-2-yl)-8-((3R,5R)-3,5-dimethylpiperazin-1-yl)-N-(3-methyloxetan-3-yl)imidazo[1,5-a]pyridine-6-sulfonamide], the 50% inhibitory concentration (IC50) was 5.62 nM at PARG and 517 nM with HCC1806 (Homo sapiens, HCC1806, 168 h).
For `CC(C)C(=O)N1CC=C(c2cc(S(=O)(=O)NC3(C#N)CC3)cn3c(-c4nnc(C(F)(F)F)s4)ncc23)CC1` [Example 368, N-(1-cyanocyclopropyl)-8-(1-isobutyryl-1,2,3,6-tetrahydropyridin-4-yl)-3-(5-(trifluoromethyl)-1,3,4-thiadiazol-2-yl)imidazo[1,5-a]pyridine-6-sulfonamide], the IC50 stood at 13.8 nM on PARG and 900 nM in the experiment with HCC1806 (Homo sapiens, HCC1806, 168 h).
`CC(=O)N1[C@@H](C)CN(c2cc(S(=O)(=O)NC3(C)COC3)cn3c(-c4nnc(C(F)F)s4)ncc23)C[C@@H]1C` [Example 401, 8-((3S,5S)-4-acetyl-3,5-dimethylpiperazin-1-yl)-3-(5-(difluoromethyl)-1,3,4-thiadiazol-2-yl)-N-(3-methyloxetan-3-yl)imidazo[1,5-a]pyridine-6-sulfonamide]: the IC50 came out at 158 nM on PARG and 2800 nM in the experiment on HCC1806 (Homo sapiens, HCC1806, 168 h).
For “N-(1-cyanocyclopropyl)-8-(4-(oxetane-3-carbonyl)piperazin-1-yl)-3-(5-(trifluoromethyl)-1,3,4-thiadiazol-2-yl)imidazo[1,5-a]pyridine-6-sulfonamide [Example 294]”, the 50% inhibitory concentration (IC50) amounted to 12 nM against PARG and 110 nM in the experiment with HCC1806.
In the case of `CC(C)C(=O)N1CCN(c2cc(S(=O)(=O)NC3(C#N)CC3)cn3c(-c4nnc(C(F)(F)F)s4)nc(Cl)c23)C[C@H]1C` [Example 130, (R)-1-chloro-N-(1-cyanocyclopropyl)-8-(4-isobutyryl-3-methylpiperazin-1-yl)-3-(5-(trifluoromethyl)-1,3,4-thiadiazol-2-yl)imidazo[1,5-a]pyridine-6-sulfonamide], the IC50 on PARG is 36.3 nM; in the experiment on HCC1806 (Homo sapiens, HCC1806, 168 h), 1200 nM.
In the case of `CC1(NS(=O)(=O)c2cc(N3CCC(O)CC3)c3cnc(-c4nnc(C(F)F)s4)n3c2)CC1` [Example 305, 3-(5-(difluoromethyl)-1,3,4-thiadiazol-2-yl)-8-(4-hydroxypiperidin-1-yl)-N-(1-methylcyclopropyl)imidazo[1,5-a]pyridine-6-sulfonamide], the IC50 on PARG was 6.91 nM; with HCC1806 (Homo sapiens, HCC1806, 168 h), 130 nM.
On the same counts, the results for `[2H]C([2H])([2H])OC1(C(=O)N2CCN(c3cc(S(=O)(=O)NC4(C)COC4)cn4c(-c5nnc(C(F)(F)F)s5)ncc34)CC2)CC1` [Example 183, 8-(4-(1-(methoxy-d3)cyclopropane-1-carbonyl)piperazin-1-yl)-N-(3-methyloxetan-3-yl)-3-(5-(trifluoromethyl)-1,3,4-thiadiazol-2-yl)imidazo[1,5-a]pyridine-6-sulfonamide] are 0.91 nM and 26.8 nM.
Turning to `CC1(NS(=O)(=O)c2cc(N3CCO[C@H](CO)C3)c3cnc(-c4nnc(C(F)F)s4)n3c2)CC1` [Example 342, (S)-3-(5-(difluoromethyl)-1,3,4-thiadiazol-2-yl)-8-(2-(hydroxymethyl)morpholino)-N-(1-methylcyclopropyl)imidazo[1,5-a]pyridine-6-sulfonamide], the IC50 was 3.04 nM at PARG and 297 nM in the experiment with HCC1806 (Homo sapiens, HCC1806, 168 h).
On the same counts, the results for `COC1(C(=O)N2CCN(c3c(F)c(S(=O)(=O)NC4(C)CC4)cn4c(-c5nnc(C(F)F)s5)ncc34)CC2)CC1` [Example 198, 3-(5-(difluoromethyl)-1,3,4-thiadiazol-2-yl)-7-fluoro-8-(4-(1-methoxycyclopropane-1-carbonyl)piperazin-1-yl)-N-(1-methylcyclopropyl)imidazo[1,5-a]pyridine-6-sulfonamide] are 0.66 nM and 27.8 nM.
For `CC1(NS(=O)(=O)c2cc(N3CCN4C(=O)COCC4C3)c3cnc(-c4nnc(C(F)(F)F)s4)n3c2)COC1` (centres unmarked) [Example 363, N-(3-methyloxetan-3-yl)-8-(4-oxohexahydropyrazino[2,1-c][1,4]oxazin-8(1H)-yl)-3-(5-(trifluoromethyl)-1,3,4-thiadiazol-2-yl)imidazo[1,5-a]pyridine-6-sulfonamide], the IC50 against PARG worked out at 1.71 nM; with HCC1806 (Homo sapiens, HCC1806, 168 h) it was 63 nM.
With `N#CC1(NS(=O)(=O)c2cc(N3CCNCC3)c3cnc(-c4nnc(C(F)(F)F)s4)n3c2)CC1` [Example 233, N-(1-cyanocyclopropyl)-8-(piperazin-1-yl)-3-(5-(trifluoromethyl)-1,3,4-thiadiazol-2-yl)imidazo[1,5-a]pyridine-6-sulfonamide], the IC50 against PARG is 45.7 nM; in the experiment with HCC1806 (Homo sapiens, HCC1806, 168 h), 3000 nM.
On the same counts, the results for `CNC1(C(=O)N2CCN(c3cc(S(=O)(=O)NC4(C)CC4)cn4c(-c5nnc(C(F)(F)F)s5)ncc34)CC2)CC1` [Example 318, 8-(4-(1-(methylamino)cyclopropane-1-carbonyl)piperazin-1-yl)-N-(1-methylcyclopropyl)-3-(5-(trifluoromethyl)-1,3,4-thiadiazol-2-yl)imidazo[1,5-a]pyridine-6-sulfonamide] are 1.84 nM and 363 nM.
For `[2H]c1nc(-c2nnc(C(F)F)s2)n2cc(S(=O)(=O)NC3(C)COC3)cc(N3C[C@H](C)N[C@@H](C)C3)c12` [Example 160, 3-(5-(difluoromethyl)-1,3,4-thiadiazol-2-yl)-8-((3S,5S)-3,5-dimethylpiperazin-1-yl)-N-(3-methyloxetan-3-yl)imidazo[1,5-a]pyridine-6-sulfonamide-1-d] the same measures were 0.23 nM and 23.5 nM.
Consider `CC1(NS(=O)(=O)c2cc(N3CCN[C@@H](CO)C3)c3cnc(-c4nnc(C(F)F)s4)n3c2)COC1` [Example 178, (R)-3-(5-(difluoromethyl)-1,3,4-thiadiazol-2-yl)-8-(3-(hydroxymethyl)piperazin-1-yl)-N-(3-methyloxetan-3-yl)imidazo[1,5-a]pyridine-6-sulfonamide], for which the IC50 against PARG was 1.18 nM; in the experiment on HCC1806 (Homo sapiens, HCC1806, 168 h), 945 nM.
For `CN(C)C(=O)N1CCN(c2cc(S(=O)(=O)NC3(C)COC3)cn3c(-c4nnc(C(F)F)s4)nc(Cl)c23)CC1` [Example 128, 4-(1-chloro-3-(5-(difluoromethyl)-1,3,4-thiadiazol-2-yl)-6-(N-(3-methyloxetan-3-yl)sulfamoyl)imidazo[1,5-a]pyridin-8-yl)-N,N-dimethylpiperazine-1-carboxamide] the same measures were 0.99 nM and 28 nM.
On the same counts, the results for `COC[C@@H]1CN(c2cc(S(=O)(=O)NC3(C#N)CC3)cn3c(-c4nnc(C(F)F)s4)ncc23)CCN1C(=O)C(C)C` [Example 223, (S)-N-(1-cyanocyclopropyl)-3-(5-(difluoromethyl)-1,3,4-thiadiazol-2-yl)-8-(4-isobutyryl-3-(methoxymethyl)piperazin-1-yl)imidazo[1,5-a]pyridine-6-sulfonamide] are 1.45 nM and 250 nM.
On the same counts, the results for `N#CC1(NS(=O)(=O)c2cc(N3CCN(C(=O)[C@H]4CCN4)CC3)c3cnc(-c4nnc(C(F)(F)F)s4)n3c2)CC1` [Example 264, (R)-8-(4-(azetidine-2-carbonyl)piperazin-1-yl)-N-(1-cyanocyclopropyl)-3-(5-(trifluoromethyl)-1,3,4-thiadiazol-2-yl)imidazo[1,5-a]pyridine-6-sulfonamide] are 75.9 nM and 6640 nM.
For the molecule `COC1(C(=O)N2CCN(c3cc(S(=O)(=O)NC4(C#N)CC4)cn4c(-c5nnc(C(F)(F)F)s5)ncc34)CC2)CC1` [Example 228, N-(1-cyanocyclopropyl)-8-(4-(1-methoxycyclopropane-1-carbonyl)piperazin-1-yl)-3-(5-(trifluoromethyl)-1,3,4-thiadiazol-2-yl)imidazo[1,5-a]pyridine-6-sulfonamide], the 50% inhibitory concentration (IC50) on PARG stood at 0.38 nM; in the experiment with HCC1806 (Homo sapiens, HCC1806, 168 h), 107 nM.
On the same counts, the results for `CC1(O)CC2(CCN(c3cc(S(=O)(=O)NC4(C#N)CC4)cn4c(-c5nnc(C(F)(F)F)s5)ncc34)CC2)C1` [Example 242, N-(1-cyanocyclopropyl)-8-(2-hydroxy-2-methyl-7-azaspiro[3.5]nonan-7-yl)-3-(5-(trifluoromethyl)-1,3,4-thiadiazol-2-yl)imidazo[1,5-a]pyridine-6-sulfonamide] are 52.5 nM and 2980 nM.
On the same counts, the results for `CN(C)C1(C(=O)N2CCN(c3cc(S(=O)(=O)NC4(C#N)CC4)cn4c(-c5nnc(C(F)(F)F)s5)ncc34)CC2)CC1` [Example 266, N-(1-cyanocyclopropyl)-8-(4-(1-(dimethylamino)cyclopropane-1-carbonyl)piperazin-1-yl)-3-(5-(trifluoromethyl)-1,3,4-thiadiazol-2-yl)imidazo[1,5-a]pyridine-6-sulfonamide] are 132 nM and 370 nM.
On the same counts, the results for `Cc1ncnn1CC(=O)N1CCN(c2cc(S(=O)(=O)NC3(C)CC3)cn3c(-c4nnc(C(F)(F)F)s4)ncc23)CC1` [Example 335, 8-(4-(2-(5-methyl-1H-1,2,4-triazol-1-yl)acetyl)piperazin-1-yl)-N-(1-methylcyclopropyl)-3-(5-(trifluoromethyl)-1,3,4-thiadiazol-2-yl)imidazo[1,5-a]pyridine-6-sulfonamide] are 6.55 nM and 480 nM.
Turning to `N#CC1(NS(=O)(=O)c2cc(N3CCN(C(=O)[C@@H]4CCCO4)CC3)c3cnc(-c4nnc(C(F)(F)F)s4)n3c2)CC1` [Example 301, (S)-N-(1-cyanocyclopropyl)-8-(4-(tetrahydrofuran-2-carbonyl)piperazin-1-yl)-3-(5-(trifluoromethyl)-1,3,4-thiadiazol-2-yl)imidazo[1,5-a]pyridine-6-sulfonamide], the IC50 against PARG is 50.1 nM; with HCC1806 (Homo sapiens, HCC1806, 168 h), 436 nM.

As a reminder, the IC50 is the concentration that inhibits the measured activity by half.
